Measured values from patent publication US5681832A, “Aroylaniline compounds, pharmaceutical compositions, and methods of using same to inhibit viral activity” (priority 1995, dated 1997).
Where a name gives a salt, the structure may show the parent alone. Read-outs that look alike come from different tables or passages of the source.

Assays:
HIV-1 = assay: in vitro anti-HIV screening (NCI XTT soluble-formazan assay, protection of HIV-1-infected CEM T4 lymphocytes from cytolysis); assay type: cell-based; conditions: for EC50 / inhibition at 200 µM / inhibition at 20 µM / inhibition at 2 µM / inhibition at 0.2 µM / inhibition at 63.2 µM / inhibition at 6.33 µM / inhibition at 0.634 µM / inhibition at 0.0635 µM: Human immunodeficiency virus 1, CCRF-CEM; for EC50: 144 h, HIV-1-infected CEM cells, 6 days, approximate values, read-out: EC50 (Molar), 50% effective concentration; for inhibition at 200 µM / activity at 200 µM: 2.00 × 10^-4 Molar; for inhibition at 200 µM / inhibition at 20 µM / inhibition at 2 µM / inhibition at 0.2 µM / inhibition at 63.2 µM / inhibition at 6.33 µM / inhibition at 0.634 µM / inhibition at 0.0635 µM: read-out: Percent of Protection; for inhibition at 20 µM / activity at 20 µM: 2.00 × 10^-5 Molar; for inhibition at 2 µM / activity at 2 µM: 2.00 × 10^-6 Molar; for inhibition at 0.2 µM / activity at 0.2 µM: 2.00 × 10^-7 Molar; for inhibition at 63.2 µM / activity at 63.2 µM: 6.32 × 10^-5 Molar; for inhibition at 6.33 µM / activity at 6.33 µM: 6.33 × 10^-6 Molar; for inhibition at 0.634 µM / activity at 0.634 µM: 6.34 × 10^-7 Molar; for inhibition at 0.0635 µM / activity at 0.0635 µM: 6.35 × 10^-8 Molar; for activity at 200 µM / activity at 20 µM / activity at 2 µM / activity at 0.2 µM / activity at 63.2 µM / activity at 6.33 µM / activity at 0.634 µM / activity at 0.0635 µM: Human immunodeficiency virus 1, CEM-T4, read-out: Percent of Control, Infected; for TI50 (IC/EC), therapeutic index: IC50/EC50; for Conclusion: NCI anti-HIV screen
Description: The aroylaniline compounds of the present invention were subjected to in vitro screening to determine their anti-HIV activity.
The National Cancer Institute's procedure for testing for agents active against Human Immunodeficiency Virus (HIV) (Weislow, O. W. et al., "New soluble-formazan assay for HIV-1 cytopathic effects: application to high-flux screening of synthetic and natural products for AIDS-antiviral activity," J. Natl Cancer Inst., 81, 577-586 (1989)) is designed to detect agents acting at any stage of the virus reproductive cycle. The assay includes the killing of T4 lymphocytes by HIV. Pursuant to the test, small amounts of HIV are added to cells, and a complete cycle of virus reproduction is necessary to obtain the required cell killing. Agents that interact with virions, cells, or virus gene-products to interfere with viral activities will protect cells from cytolysis. The system is thus designed to detect anti-HIV activity. However, compounds that are chemically labile or are rapidly metabolized in the culture conditions may not show activity in this screen. All tests are compared with at least one positive (e.g., AZT-treated) control done at the same time under identical conditions.
(§1) 1. Candidate agent is dissolved in dimethyl sulfoxide (unless otherwise instructed) and then diluted 1:100 in cell culture medium before preparing serial half-log10 dilutions which are then to 96-well microfilter plates. T4 lymphocytes (CEM cell line) are added, and after a brief interval HIV-1 is added to all wells, resulting in a 1:200 final dilution […]. Uninfected cells with the compound serve as a toxicity control, and infected and uninfected cells without the compound serve as basic controls.
(§2) 2. Cultures are incubated at 37° C. in a 5% carbon dioxide atmosphere for 6 days.
(§3) 3. The tetrazolium salt, XTT, is added to all wells, and cultures are incubated to allow formazan color development by viable cells.
(§4) 4. Individual wells are analyzed spectrophotometrically to quantitate formazan production, and in addition are viewed microscopically for detection of viable cells and confirmation of protective activity.
(§5) 5. Drug-tested virus-infected cells are compared with drug-treated noninfected cells and with other appropriate controls (untreated infected and untreated noninfected cells, drug-containing wells without cells, etc.) on the same plate.
6. Data are reviewed in comparison with other tests done at the same time and a determination about activity is made.
The aroylaniline compounds of the present invention were tested for anti-HIV activity according to the above procedure. FIGS. 1-6 represent test results of the aroylaniline compounds of Compounds 1, 3, 13, 14, 29 and 32.
(§6) FIGS. 1 to 6 display a plot of the log10 of the concentrations (as μg/mL or molar as shown) of the aroylaniline compounds, Compounds 1, 3, 13, 14, 29 and 32, against the measured test values expressed as a percentage of the uninfected, untreated control values. The solid line depicts the percentage of surviving HIV-infected cells treated with sample (at the indicated concentration) relative to uninfected, untreated controls. Thus, the solid line expresses the anti-HIV activity of the compound. The dashed line depicts the percentage of surviving uninfected cells treated with the compound relative to the same uninfected, untreated controls. Thus, the dashed line expresses the growth inhibitory properties of the compound. The viral cytopathic effect […] is indicated by a dotted reference line. […] Survival values of this parameter less than 50% are considered acceptable in the current protocol. Approximate values for 50% effective concentration (EC50) have been calculated for each test and are set forth for these Compounds in Tables 2-7, respectively.

[1] = system: T4 lymphocytes (CEM cell line); assay: toxicity control: survival of uninfected T4 lymphocytes (CEM cell line) treated with compound (growth inhibition); assay type: cell-based; conditions: Homo sapiens, CCRF-CEM; for IC50: 144 h, read-out: IC50 (Molar); for activity at 200 µM / activity at 20 µM / activity at 2 µM / activity at 0.2 µM / activity at 63.2 µM / activity at 6.33 µM / activity at 0.634 µM / activity at 0.0635 µM: read-out: Percent of Control, Uninfected
Experimental: as §1, §2, §3, §4, §5, §6

Row | SMILES | EC50 (HIV-1) [µM] | inhibition at 200 µM (HIV-1) [%] | inhibition at 20 µM (HIV-1) [%] | inhibition at 2 µM (HIV-1) [%] | inhibition at 0.2 µM (HIV-1) [%] | inhibition at 63.2 µM (HIV-1) [%] | inhibition at 6.33 µM (HIV-1) [%] | inhibition at 0.634 µM (HIV-1) [%] | inhibition at 0.0635 µM (HIV-1) [%] | activity at 200 µM (HIV-1) [%] | activity at 20 µM (HIV-1) [%] | activity at 2 µM (HIV-1) [%] | activity at 0.2 µM (HIV-1) [%] | activity at 63.2 µM (HIV-1) [%] | activity at 6.33 µM (HIV-1) [%] | activity at 0.634 µM (HIV-1) [%] | activity at 0.0635 µM (HIV-1) [%] | TI50 (IC/EC), therapeutic index (HIV-1) | Conclusion (HIV-1) | IC50 [1] [µM] | also measured
1 | O=C(Nc1ccc(C=Cc2ccc(NC(=O)c3cc(S(=O)(=O)O)c4cccnc4c3O)cc2S(=O)(=O)O)c(S(=O)(=O)O)c1)c1cc(S(=O)(=O)O)c2cccnc2c1O [Compound 1, 4,4'-di(8-hydroxy-5-sulfo-7-quinolinecarboxyamido)stilbene-2,2'disulfonic acid tetrasodium salt] | 1.44 | -26 | 107 | 68.6 | 5.09 | 85.6 | 121 | 3.41 | -5.09 | 4.26 | 105 | 76.2 | 27.9 | 89.1 | 116 | 26.6 | 20.1 | 8.28 × 10^+1 | CONFIRMED ACTIVE |  | IC50 ([1]; uninfected CEM cells, 6 days): 120 µM; activity at 200 µM ([1]; 2.00 × 10^-4 Molar): 6.47%; activity at 20 µM ([1]; 2.00 × 10^-5 Molar): 109%; activity at 2 µM ([1]; 2.00 × 10^-6 Molar): 106%; activity at 0.2 µM ([1]; 2.00 × 10^-7 Molar): 102%; activity at 63.2 µM ([1]; 6.32 × 10^-5 Molar): 104%; activity at 6.33 µM ([1]; 6.33 × 10^-6 Molar): 117%; activity at 0.634 µM ([1]; 6.34 × 10^-7 Molar): 105%; activity at 0.0635 µM ([1]; 6.35 × 10^-8 Molar): 97.6%
2 | O=C(O)CSCc1cc(C(=O)Nc2ccc(C=Cc3ccc(NC(=O)c4cc(CSCC(=O)O)c5cccnc5c4O)cc3S(=O)(=O)O)c(S(=O)(=O)O)c2)c(O)c2ncccc12 [Compound 14] | 0.805 | 27.6 | 16.6 | 147 | 17.6 | 6.56 | 151 | 25 | 16 | 29.8 | 19.1 | 146 | 20 | 9.36 | 149 | 27.2 | 18.5 | 2.05 × 10^+2 | CONFIRMED ACTIVE | 16.5 | activity at 0.0635 µM [1]: 80.2%; activity at 0.2 µM [1]: 88.9%; activity at 0.634 µM [1]: 122%; activity at 2 µM [1]: 206%; activity at 6.33 µM [1]: 221%; activity at 20 µM [1]: 15.5%; activity at 63.2 µM [1]: 2.52%; activity at 200 µM [1]: -0.84%
3 | O=C([O-])c1c(O)ccc(O)c1C(=O)Nc1ccc(C=Cc2ccc(NC(=O)c3c(O)ccc(O)c3C(=O)[O-])cc2S(=O)(=O)O)c(S(=O)(=O)O)c1.[Na+].[Na+] [Compound 29, 4,4'-di(2-carboxy-3,6-dihydroxybenzamido)stilbene-2,2'-disulfonic acid disodium salt] | 12.5 | 79.7 | 83.3 | 0.58 | -1.09 | 92.7 | 2.47 | -0.52 | -3.31 | 81.1 | 84.5 | 7.54 | 5.99 | 93.2 | 9.3 | 6.52 | 3.92 | > 1.61 × 10^+1 | CONFIRMED ACTIVE | > 220 | activity at 0.0635 µM [1]: 93.2%; activity at 0.2 µM [1]: 93.8%; activity at 0.634 µM [1]: 92.8%; activity at 2 µM [1]: 95.2%; activity at 6.33 µM [1]: 96.7%; activity at 20 µM [1]: 99%; activity at 63.2 µM [1]: 100%; activity at 200 µM [1]: 93%
